Test results as given in PMC6599039, “Structural and functional analysis of the role of the chaperonin CCT in mTOR complex assembly” (Nature Communications, 2019).

Target: T1, CCT8 in the human mLST8-CCT complex (Homo sapiens, UniProt P50990)
T1 construct: isolated from HEK-293T cells co-expressing His6-myc-PhLP1; no nucleotide added; with T-complex protein 1 subunit alpha; T-complex protein 1 subunit beta; T-complex protein 1 subunit gamma; T-complex protein 1 subunit delta; T-complex protein 1 subunit epsilon; T-complex protein 1 subunit zeta; T-complex protein 1 subunit eta; Target of rapamycin complex subunit LST8
T1 sequence (P50990 2-548): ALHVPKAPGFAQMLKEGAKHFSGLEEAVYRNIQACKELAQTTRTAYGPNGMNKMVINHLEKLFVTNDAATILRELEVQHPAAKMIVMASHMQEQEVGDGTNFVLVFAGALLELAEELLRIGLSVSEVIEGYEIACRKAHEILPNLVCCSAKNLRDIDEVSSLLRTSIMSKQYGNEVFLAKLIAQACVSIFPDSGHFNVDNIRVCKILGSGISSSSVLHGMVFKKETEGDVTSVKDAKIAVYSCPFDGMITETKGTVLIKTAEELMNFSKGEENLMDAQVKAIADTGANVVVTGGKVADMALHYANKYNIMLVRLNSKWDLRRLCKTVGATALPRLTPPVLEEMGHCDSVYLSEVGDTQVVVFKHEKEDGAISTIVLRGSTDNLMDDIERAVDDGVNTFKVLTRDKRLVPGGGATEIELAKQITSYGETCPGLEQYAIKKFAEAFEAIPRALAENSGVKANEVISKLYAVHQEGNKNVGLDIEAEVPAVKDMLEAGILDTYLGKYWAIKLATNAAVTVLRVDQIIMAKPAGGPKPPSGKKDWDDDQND
Test: cryo-EM structure of the complex ([…] A)
Settings: co-purified nucleotide, none added; equatorial nucleotide-binding pocket of both CCT8 subunits

In the case of `Nc1ncnc2c1ncn2[C@@H]1O[C@H](COP(=O)(O)OP(=O)(O)O)[C@@H](O)[C@H]1O` [ADP], the “cryo-EM structure of the complex (4.0 A)” value is reported as “nucleotide-binding pocket of either of the CCT8 subunits revealed electron density that is clearly attributable to ADP”.
